In US20240115557A1, “INHIBITORS OF RNA-GUIDED NUCLEASES AND USES THEREOF” (The Brigham and Women's Hospital, Inc., priority 2022, published 2024):

Molecular target: SpCas9 (Streptococcus pyogenes serotype M1, UniProt Q99ZW2)
Assay: eGFP disruption assay, SpCas9, U2OS.eGFP.PEST cells
Type: cell-based
Conditions: for Normalized Z rep1 / Z score Rep1: replicate 1; for SpCas9 eGFP disruption Rep1: replicate 1, raw readout; for Normalized Z rep2 / Z socre Rep2: replicate 2; for SpCas9 eGFP disruption Rep2: replicate 2, raw readout
From the text: In some embodiments, the secondary assay may be an EGFP disruption assay. In such assay, a quantitative human cell-based reporter assay that enables rapid quantitation of targeted nuclease activities is used to characterize off-target cleavage of Cas9-based RNA guided endonucleases. In this assay, the activities of nucleases targeted to a single integrated EGFP reporter gene can be quantified by assessing loss of fluorescence signal in human U2OS.EGFP cells caused by inactivating frameshift insertion/deletion (indel) mutations introduced by error prone non-homologous end-joining (NHEJ) repair of nuclease-induced double-stranded breaks (DSBs).
In one protocol, U2OS.EGFP cells harboring a single integrated copy of an EGFP-PEST fusion gene are cultured (see e.g., Reyon et al., Nat Biotech 30, 460-465 (2012), which is herein incorporated by reference in its entirety). For transfections, 200,000 cells are Nucleofected with gRNA expression plasmid and pJDS246 together with 30 ng of a Td-tomato-encoding plasmid using the SE Cell Line 4D-Nucleofector™ X Kit (Lonza) according to the manufacturer's protocol. Cells are analyzed 2 days post-transfection using a BD LSRII flow cytometer. Transfections for optimizing gRNA/Cas9 plasmid concentration are performed in triplicate and all other transfections are performed in duplicate. PCR amplification is used for sequence verification of endogenous human genomic sites. PCR reactions are performed using Phusion Hot Start II high-fidelity DNA polymerase (NEB). Loci are amplified using touchdown PCR (98° C., 10 s; 72-62° C., −1° C./cycle, 15s; 72° C., 30 s] 10 cycles, [98° C., 10s; 62° C., 15s; 72° C., 30 s] 25 cycles). Alternatively, PCR for other targets is performed with 35 cycles at a constant annealing temperature of 68° C. or 72° C., and 3% DMSO or IM betaine, if necessary. PCR products are analyzed on a QIAXCEL capillary electrophoresis system to verify both size and purity. Validated products are treated with ExoSap-IT (Affymetrix) and sequenced by the Sanger method (MGH DNA Sequencing Core) to verify each target site.
Primary and secondary screening. The primary screen assayed a selection of unique chemical scaffolds derived from commercially available compounds and known bioactive molecular libraries (Table 7). Auto-fluorescent compounds were removed by a counter screen. Overall, the CAA was used to assay 122,409 small molecules with over 2,500 unique chemical scaffolds (FIG. 64F, Table 7). Of these compounds, 547 were selected as hits (Z score >3 in both replicates) for testing in orthogonal cell-based secondary assays. Hits were tested in duplicate in an eGFP disruption assay, wherein U2OS.eGFP.PEST cells^33 transfected with SpCas9 plasmid and eGFP-targeting gRNA plasmid were incubated with 20 μM of the compounds. In this assay, any compound that inhibited SpCas9 would rescue the loss of eGFP fluorescence. Here, toxic and auto-fluorescent compounds with a high GFP signal in cells were removed as false positives. […] Next, Applicants tested the 15 compounds in a luminescence-based gain-of-signal HiBiT knock-in assay, which involves SpCas9-mediated homology-directed tagging of GAPDH with a short peptide that luminesces upon complementation with a subunit derived from nanoluciferase.^34 Complementarily, the eGFP-disruption assay is fluorescence-based and involves error-prone DNA repair. As a counter-screen to remove false positives caused by cell death (viability <80%), the cell viability was measured after incubation.
For SAR studies and dose-response studies, 300,000 U2OS.eGFP.PEST cells were nucleofected with 300 ng of SpCas9 plasmid (Addgene #43861) and 30 ng of eGFP-targeting gRNA plasmid (Addgene #47511)^33 using SE Cell Line 4D-Nucleofector X Kit (Lonza) following the pulse program of DN-100. For RNP-based genome editing, 10 pmol of SpCas9 (GenScript #Z03385) and 12 pmol of gRNA were mixed and incubated for 5 min. […]

[1] = Cas9 = lower control, Ctrl = upper control
[2] = normalized, lower control about 0, upper control about 1

SpCas9, sequence (Q99ZW2 whole entry): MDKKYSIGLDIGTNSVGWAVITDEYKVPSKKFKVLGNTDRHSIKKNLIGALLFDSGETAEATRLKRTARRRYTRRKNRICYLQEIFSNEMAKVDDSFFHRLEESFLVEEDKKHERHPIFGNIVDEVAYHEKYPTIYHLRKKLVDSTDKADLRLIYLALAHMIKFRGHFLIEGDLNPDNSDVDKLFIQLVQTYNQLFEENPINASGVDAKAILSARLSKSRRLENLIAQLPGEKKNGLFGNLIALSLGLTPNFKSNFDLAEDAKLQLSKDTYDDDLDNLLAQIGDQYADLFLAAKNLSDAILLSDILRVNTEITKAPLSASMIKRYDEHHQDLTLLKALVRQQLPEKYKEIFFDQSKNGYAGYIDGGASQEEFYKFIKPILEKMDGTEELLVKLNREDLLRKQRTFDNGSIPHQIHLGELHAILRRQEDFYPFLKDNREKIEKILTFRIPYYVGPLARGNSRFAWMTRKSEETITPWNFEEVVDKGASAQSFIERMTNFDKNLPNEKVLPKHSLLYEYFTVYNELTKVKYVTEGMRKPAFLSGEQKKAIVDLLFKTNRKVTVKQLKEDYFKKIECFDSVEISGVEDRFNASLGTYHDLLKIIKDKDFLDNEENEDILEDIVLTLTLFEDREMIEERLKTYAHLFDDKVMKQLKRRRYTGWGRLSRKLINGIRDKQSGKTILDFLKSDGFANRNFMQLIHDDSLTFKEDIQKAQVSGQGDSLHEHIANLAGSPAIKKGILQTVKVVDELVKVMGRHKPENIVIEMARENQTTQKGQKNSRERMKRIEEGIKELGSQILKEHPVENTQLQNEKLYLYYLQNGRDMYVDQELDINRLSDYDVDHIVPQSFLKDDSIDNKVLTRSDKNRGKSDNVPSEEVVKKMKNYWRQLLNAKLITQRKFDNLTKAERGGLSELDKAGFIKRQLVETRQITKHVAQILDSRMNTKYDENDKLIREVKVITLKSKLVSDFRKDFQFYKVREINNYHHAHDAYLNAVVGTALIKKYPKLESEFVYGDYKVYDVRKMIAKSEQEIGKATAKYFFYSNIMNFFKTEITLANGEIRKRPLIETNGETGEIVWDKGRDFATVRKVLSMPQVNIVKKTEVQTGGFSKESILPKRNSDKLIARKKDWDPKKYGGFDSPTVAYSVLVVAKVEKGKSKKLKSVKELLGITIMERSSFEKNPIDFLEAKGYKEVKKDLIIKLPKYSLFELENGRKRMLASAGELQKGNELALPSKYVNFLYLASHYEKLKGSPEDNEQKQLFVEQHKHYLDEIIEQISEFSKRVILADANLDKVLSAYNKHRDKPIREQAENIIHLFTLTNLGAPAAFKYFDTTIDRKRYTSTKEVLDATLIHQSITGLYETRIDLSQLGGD

Structure (SMILES) | Normalized Z rep1 | Z score Rep1 | SpCas9 eGFP disruption Rep1 | Normalized Z rep2 | Z socre Rep2 | SpCas9 eGFP disruption Rep2 | SpCas9 eGFP disruption Rep1 [1] | Normalized Z rep1 [2] | SpCas9 eGFP disruption Rep2 [1] | Normalized Z rep2 [2]
COc1ccc(-c2nnc3sc(-c4cccnc4)nn23)cc1OC [Compound D727-0025] | −0.28 | −2.04 | 60.269 | −0.11 | −1.05 | 59.908 |  |  |  | 
Cc1ccc(-c2nn3c(-c4cccnc4)nnc3s2)cc1 [Compound D727-0047] | −0.34 | −2.47 | 58.846 | −0.29 | −2.72 | 54.891 |  |  |  | 
Brc1cccc(-c2nn3c(-c4cccnc4)nnc3s2)c1 [Compound D727-0051] | 0.02 | 0.13 | 67.429 | 0.08 | 0.79 | 65.459 |  |  |  | 
c1cncc(-c2nnc3sc(Cc4ccc5c(c4)OCCO5)nn23)c1 [Compound D727-0088] | −0.24 | −1.77 | 61.161 | −0.08 | −0.75 | 60.83 |  |  |  | 
COc1ccc(Cc2nnc3sc(-c4ccccc4OC)nn23)cc1 [Compound D727-0159] | −0.57 | −4.09 | 53.496 | −0.23 | −2.11 | 56.714 |  |  |  | 
Cc1nc2ccccc2n1Cc1nnc2sc(-c3cccnc3)nn12 [Compound D727-0182] | −0.45 | −3.22 | 56.36 | 0.14 | 1.30 | 67.01 |  |  |  | 
Fc1cccc(-c2nnc3sc(CCCc4ccccc4)nn23)c1 [Compound D727-0404] | −0.14 | −0.99 | 63.741 | −0.34 | −3.13 | 53.633 |  |  |  | 
Brc1cccc(-c2nn3c(-c4ccccn4)nnc3s2)c1 [Compound D727-0489] | −0.24 | −1.76 | 61.183 | −0.06 | −0.58 | 61.347 |  |  |  | 
Clc1ccccc1OCc1nn2c(-c3ccccn3)nnc2s1 [Compound D727-0524] | −0.39 | −2.83 | 57.663 | −0.16 | −1.47 | 58.659 |  |  |  | 
c1ccc(-c2nnc3sc(-c4ccc5c(c4)OCO5)nn23)nc1 [Compound D727-0536] | −0.16 | −1.18 | 63.106 | −0.09 | −0.86 | 60.482 |  |  |  | 
COc1ccc(CCc2nnc3sc(-c4ccncc4)nn23)cc1OC [Compound D727-0712] | −0.16 | −1.13 | 63.284 | −0.29 | −2.66 | 55.062 |  |  |  | 
Cc1nn(-c2ccccc2)c(C)c1CCc1nnc2sc(-c3ccccc3F)nn12 [Compound D727-0713] |  | 0.38 |  |  | 1.08 |  | 68.26 | 0.05 | 66.347 | 0.12
COc1ccc(-c2nn3c(-c4ccc5ccccc5n4)nnc3s2)cc1OC [Compound D727-0743] | −0.03 | −0.23 | 66.254 | −0.13 | −1.19 | 59.503 |  |  |  | 
CN(C)c1cccc(-c2nn3c(-c4ccc5ccccc5c4)nnc3s2)c1 [Compound D727-0754] | −0.15 | −1.06 | 63.517 | −0.59 | −5.54 | 46.376 |  |  |  | 
CN(C)c1ccc(-c2nn3c(-c4ccc5ccccc5n4)nnc3s2)cc1 [Compound D727-0755] | −0.11 | −0.83 | 64.271 | −0.09 | −0.79 | 60.694 |  |  |  | 
Cc1nn(-c2ccccc2)c(C)c1CCc1nn2c(-c3cccc(F)c3)nnc2s1 [Compound D727-0828] | −0.36 | −2.61 | 58.376 | −0.14 | −1.34 | 59.045 |  |  |  | 
Cc1nn(-c2ccccc2)c(C)c1CCc1nn2c(-c3ccncc3)nnc2s1 [Compound D727-0837] | −0.15 | −1.06 | 63.496 | −0.11 | −1.05 | 59.923 |  |  |  | 
Cc1nn(-c2ccccc2)c(C)c1CCc1nn2c(-c3cnccn3)nnc2s1 [Compound D727-0838] | −0.12 | −0.86 | 64.17 | −0.21 | −1.92 | 57.281 |  |  |  | 
Fc1ccc(-c2nn3c(-c4ccncc4)nnc3s2)cc1Br [Compound D727-0883] | −0.13 | −0.93 | 63.924 | −0.09 | −0.88 | 60.422 |  |  |  | 
Fc1ccc(-c2nn3c(-c4cnccn4)nnc3s2)cc1Br [Compound D727-0884] | −0.16 | −1.16 | 63.178 | −0.23 | −2.10 | 56.742 |  |  |  | 
Clc1cccc(-c2nnc3sc(-c4ccc5ccccc5n4)nn23)c1 [Compound D727-0890] | −0.17 | −1.24 | 62.913 | −0.22 | −2.01 | 57.037 |  |  |  | 
Fc1cccc(-c2nnc3sc(-c4ccc5ccccc5n4)nn23)c1 [Compound D727-0892] | −0.28 | −2.03 | 60.296 | −0.34 | −3.13 | 53.657 |  |  |  | 
NC(=O)c1sc(=S)n2c1[nH]c(=O)c1cc(Cl)ccc12 [Compound F083-0005] | −0.23 | −1.66 | 61.541 | −0.12 | −1.09 | 59.801 |  |  |  | 
O=C(NCC1CCCO1)c1sc(=S)n2c1[nH]c(=O)c1cc3c(cc12)OCO3 (stereo not drawn) [Compound F083-0416] | −0.32 | −2.28 | 59.472 | −0.05 | −0.49 | 61.595 |  |  |  | 
